Patent publication EP0996337B1, “A PROCESS OF DELIVERING A POLY[…] THE VASCULAR SYSTEM” (Mirus Bio Corporation, priority 1997, dated 1998)

Assay: Serum ALT and GGT after injections in mice
Type: in vivo
Details: positive control, one day after intraperitoneal injection of 40 µl of 50% in mineral oil, n=4
Method: Blood obtained from the retro-orbit sinus was analyzed for serum concentration of hGH using the RIA, HGH-TGES 100T kit from Nichols Institute (San Juan Capistrano, CA). Serum ALT and GGT levels were done using EKTACHEM DT slides and a KODAK EKTACHEM DT 60 ANALYZER as recommended by the manufacturer (Kodak. Rochester, NY)
Similar results were also obtained when bile ducts were injected with 100 µg of pCILuc in 1 ml of 15% mannitol and 2.5 units heparin/ml in normal saline solution. A mean total luciferase protein/liver of 15.39 µg/liver (Fig. 1A. BD+CL) was obtained when the hepatic vein was clamped as compared to a mean total luciferase protein/liver of 1.33 µg/liver (Fig 1A. BD-CL) without occluding the hepatic vein If mannitol was omitted then the bile duct injections without clamping any blood vessels yielded approximately 15-fold less luciferase (0 086 µg/liver ± 0.06, n = 25). […] Serum ALT and GGT assays were performed on mice one and eight days after each of the above injections with pCILuc (4 mice for each condition). No increases in […] were observed after any of the injections including the bile duct injections. Serum ALT levels increased to 200-400 U/L one day after portal vein and bile duct injections. One day after IVC injections serum ALT levels increased to ∼1500 U/L in half of the mice but was only ∼250 U/L in the other half. […]

## ClC(Cl)(Cl)Cl [carbon tetrachloride]
  Serum ALT, average: 25,900 U/L
